Assay results: paper PMC12154426, “TPP-Based Nanovesicles Kill MDR Neuroblastoma Cells and Induce Moderate ROS Increase, While Exerting Low Toxicity Towards Primary Cell Cultures: An In Vitro Study” (International Journal of Molecular Sciences, 2025)

Key:
[1] = system: cortical neurons; assay: MTT cytotoxicity assay on cortical neuron primary cell cultures; assay type: cell-based, Sprague Dawley rat; details: for IC50: 0.12–11.73 µM
Description: Similarly to the assessment of haemolytic toxicity, the evaluation of cytotoxicity towards mammalian cells is another pivotal step to afford in the early stage of drug development, before undertaking other costly and time-consuming in vivo experiments. […] The cytotoxicity of quaternary phosphonium salts (QPSs) depends mainly on their physicochemical characteristics, including the number of carbon atoms of alkyl chains, the presence of aromatic ring(s) on which the P^+ cationic charge can delocalize, the type of counter anions, the possible colloidal properties, and the probable capability to form nano aggregates. The specific types of cells exposed to QPSs can further influence their cytotoxicity. In this regard, the constituents of membranes of cancer cells are different from those of mammalian cells. This makes them more susceptible to the disruptive action of cationic compounds, thus making QPSs’ possible cytotoxicity towards tumour cells higher than towards normal ones. Anyway, a certain cytotoxicity could manifest also in normal cells and quantifying it is mandatory. Based on these considerations, although NB is a neuroendocrine tumour which derives from neural crest cells, we investigated the BPPB toxic effects on primary cell cultures, namely spinal cord astrocytes and cortical neurons. Astrocyte primary cultures have emerged as an important tool for understanding the responses of normal cells under both physiological and pathological conditions. On the other hand, primary neuronal cell cultures are best suited for drug discovery and drug development. Primary cell cultures freshly prepared from animals reproduce physiological conditions astonishingly like the in vivo situation. As for our knowledge, it is the first time that the cytotoxicity of a bola amphiphilic compound is assessed on primary cultures of astrocytes and neurons. More generically, the existent studies on the cytotoxicity of synthetic QPSs, or of a generic exogenous synthetic cationic organic compound or polymer on astrocytes and neurons primary cell cultures, are limited. As examples, upon a rapid survey, we have found a study on the mechanism by which amine-modified cationic polystyrene nanoparticles induced cell death in a human brain astrocytoma cell line, but not in primary astrocytes. A study on the mechanism by which endogenous eosinophil cationic protein/RNase 3 induced cell death in primary astrocytes was found, but exogenous synthetic cationic compounds were not considered. Concerning primary neurons, the cytotoxicity of both a commercial (LA2000) and a newly prepared cationic lipid (Arg (TFA^−)) vs. primary neurons was assessed by Aoshima et al.. The cytotoxicity of a library of 80 compounds, among which only 2/3 molecules were cationic salts, was evaluated in human-induced pluripotent stem cell (iPSC)-derived neural stem cells, neurons, and astrocytes by Pei et al.. Vidal et al. assessed the neurotoxicity of a cationic fourth generation (G4) amine dendrimer (G4-NH2) towards primary neuron cell cultures. […] Cell viability in neurons and astrocytes, treated with increasing concentrations of BPPB for 24, 48, and 72 h, was assessed using the MTT essay, which is a method endowed with simplicity, convenience, quantitative and high throughput, as well as reproducibility. MTT is a well-established method for assessing cell viability, and its reliability is supported by standardized protocols in many areas of research.
Cortical neurons were prepared from the cortex of E16-E17 Sprague Dawley rat embryos, as previously described. The cortex was removed under binocular dissection (Nikon SMZ-2T, Tokyo, Japan) in a physiologic medium composed of 120 mM NaCl, 5 mM KCl, 25 mM HEPES, and 9 mM glucose (HIB, pH 7.4) at 4 °C. […]

[2] = system: RBCs; assay: Haemolytic toxicity on red blood cells; assay type: cell-based; details: for SI 24 h: 24 h exposure of NB cells; for SI 48 h: 48 h exposure of NB cells; for SI 72 h: 72 h exposure of NB cells
Experimental: The IC50 values reported in Table 3 were determined after 24, 48, and 72 h of exposure of NB cells and primary cortical astrocytes and neurons to BPPB, and the HC50 determined on RBCs after the time of experiments, as for protocol, was used to calculate the SIs according to Equation (1), as reported in Table 4.

SMILES: c1ccc([P+](CCCCCCCCCCCC[P+](c2ccccc2)(c2ccccc2)c2ccccc2)(c2ccccc2)c2ccccc2)cc1 [BPPB, 1,1-(1,12-dodecanediyl)-bis-[1,1,1]-triphenyl phosphonium di-bromide]
- cell viability ([1]; 0.12 µM, 24 h): 89.49%
- cell viability ([1]; 0.12 µM, 48 h): 96.77%
- cell viability ([1]; 0.12 µM, 72 h): 95.90%
- cell viability ([1]; 0.29 µM, 72 h): 71.80%
- cell viability ([1]; 1.80 µM, 48 h): 57.15%
- cell viability ([1]; 11.73 µM (10.0 µg/mL), 24 h): 14.80%
- cell viability ([1]; 11.73 µM (10.0 µg/mL), 48 h): 20.03%
- cell viability ([1]; 11.73 µM (10.0 µg/mL), 72 h): 10.63%
- IC50 ([1]; 24 h exposure): 1.56 ± 0.278 µM
- IC50 ([1]; 48 h exposure): 2.21 ± 0.337 µM
- IC50 ([1]; 72 h exposure): 0.763 ± 0.127 µM
- SI 24 h ([1]; Cortical neurons vs. HTLA 230, 24 h): 1.69
- SI 48 h ([1]; Cortical neurons vs. HTLA 230, 48 h): 4.78
- SI 72 h ([1]; Cortical neurons vs. HTLA 230, 72 h): 1.96
- SI 24 h ([1]; Cortical neurons vs. HTLA ER, 24 h): 1.26
- SI 48 h ([1]; Cortical neurons vs. HTLA ER, 48 h): 1.63
- SI 72 h ([1]; Cortical neurons vs. HTLA ER, 72 h): 0.64
- SI values with respect to primary cortical neurons ([1]; HTLA 230 and HTLA ER, all exposure timings except HTLA ER 72 h): 1.26–4.78
- SI 24 h ([2]; RBCs vs. HTLA 230): 16.81
- SI 48 h ([2]; RBCs vs. HTLA 230): 33.66
- SI 72 h ([2]; RBCs vs. HTLA 230): 39.98
- SI 24 h ([2]; RBCs vs. HTLA ER): 12.56
- SI 48 h ([2]; RBCs vs. HTLA ER): 11.49
- SI 72 h ([2]; RBCs vs. HTLA ER): 12.98
